According to paper PMC10794137, “A new antibiotic traps lipopolysaccharide in its intermembrane transporter” (Nature, 2024):
“And” between values parts separate entries of the source, which are not always exact repeats. Identical values can stand only once. Like-named read-outs stand apart in the source and are kept apart here.

What was measured:
[1] = system: Acinetobacter baylyi ADP1 wild type; test: microbe, parasite or virus in culture; format: cell-based; conditions: A. baylyi wild type
Description: (§1) Culture, genetic manipulation and MIC measurements of A. baylyi ADP1 were conducted according to previously reported procedures[46],[51]. Point mutants were constructed in a two-step procedure following ref. [52] with the introduction and excision of the integration cassette at codon 66 of pepA, wherein the excising fragment of otherwise wild-type chromosomal DNA sequence from codon 406 of pepA to codon 193 of lptG bore the desired mutation and the resulting clones were screened by amplicon sequencing from codon 81 of HolC to codon 501 of GpmI, whereas lpxM deletion was achieved following the same procedure except that the integration cassette insertion and excision removed codons 79–279 of lpxM to avoid interference with neighbouring and overlapping genes that a larger deletion may risk and replaced codon 78 with an ochre stop codon to prevent a readthrough resulting in an aberrant fusion, with the excising fragment sequence spanning from codon 211 of sppA to codon 497 of ComA and verified by amplicon sequencing from codon 94 of MhpC to codon 327 of ComA as well as by absence of a PCR product corresponding to a region spanning codons 79 to 279 of lpxM to check for duplications. A deletion of the lon protease was made in the same manner to produce the stain used for expression and purification of LptB2FG to mimic the BL21 strain of E. coli used in the rest of purifications, for which the region encompassing 72 base pairs (bp) upstream of the lon start codon and 1 bp downstream of the lon stop codon was excised after being replaced with the same integration cassette, yielding a markerless deletion, with the excising fragment sequence spanning from codon 491 of ArnT to codon 40 of 45_DOPA_Dioxygenase and verified by amplicon sequencing spanning from codon 322 of ArnT to codon 221 of 45_DOPA_Dioxygenase as well as by absence of a PCR product corresponding to a region spanning from codons 328 to 768 of lon to check for duplications. Following amplicon confirmation, three validated isolates of each constructed mutant were tested for susceptibility to a panel of antibiotics with […] known mechanisms of action as a further validation step to ensure congruence of phenotypes across replicates, which was confirmed in all cases and one of the validated replicates was later used for MIC measurements reported here.
(§2) MIC determinations were performed by broth microdilution in line with CLSI guidelines (CLSI M07-A11 2018). Bacterial inocula were prepared by diluting overnight liquid cultures in LB. Antibacterial panels containing antibacterial solutions were inoculated with an appropriate volume of inoculum to give a final inoculum of about 5 × 10^5 c.f.u. ml^−1 and desired test concentrations of antibacterial agents in standard 96-well plates with 0.1 ml of culture per well. The test plates were incubated for 20–24 h and optical density (OD600) was recorded using a plate reader. MIC values corresponded to the lowest compound concentration inhibiting bacterial growth beyond which OD ceased to decrease.

[2] = system: Acinetobacter baylyi ΔlpxM; test: MIC by broth microdilution, A. baylyi ΔlpxM; format: cell-based
Description: as §1, §2

[3] = system: His-tagged LptB2FGC (ablLptB2FGC); conditions: SPA
Description: The binding of radioligand [^3H]-RO7223280 to ablLptB2FG and ablLptB2FGC was measured by bead-based SPA. All steps were performed in SEC buffer (20 mM Tris pH 7.5, 300 mM NaCl, 5% glycerol, 0.5 mM TCEP, 0.05% DDM ± 10 µM E.coli J5 LPS(Rc) […] (Enzo Life Sciences)) and at 4 °C unless otherwise indicated. Purified protein was first incubated with Copper PVT HIS-tag beads (Perkin Elmer) for 1.5 h under gentle rotation. Twelve radioligand concentrations were added to the PVT–protein mix and incubated for another 30 min. […] The SPA plates were sealed (TopSeal, Perkin Elmer) and stored at 4 °C overnight. Before the measurement, plates were mixed on a shaker for 20 min, 750 rpm at room temperature and the seal was thoroughly wiped with antistatic spray to reduce electrostatic events. Scintillation data were recorded with a Topcount NXT C384, in the form of three independent replicates each consisting of three technical triplicates. Specific binding was calculated by subtracting non-specific binding raw counts from total binding raw counts. The dissociation constant Kd and standard deviation of the three independent replicates are reported and were calculated by the GraphPad Prism ‘One site – specific binding’ tool.

[4] = biological target: His-tagged LptB2FG (ablLptB2FG) (Acinetobacter baylyi, UniProt Q6FFD6+Q6FFD7); test: Radioligand binding SPA, LptB2FG
Description: The binding of radioligand [^3H]-RO7223280 to ablLptB2FG and ablLptB2FGC was measured by bead-based SPA. All steps were performed in SEC buffer (20 mM Tris pH 7.5, 300 mM NaCl, 5% glycerol, 0.5 mM TCEP, 0.05% DDM ± 10 µM E.coli J5 LPS(Rc) [sequence] (Enzo Life Sciences)) and at 4 °C unless otherwise indicated. Purified protein was first incubated with Copper PVT HIS-tag beads (Perkin Elmer) for 1.5 h under gentle rotation. Twelve radioligand concentrations were added to the PVT–protein mix and incubated for another 30 min. […] The SPA plates were sealed (TopSeal, Perkin Elmer) and stored at 4 °C overnight. Before the measurement, plates were mixed on a shaker for 20 min, 750 rpm at room temperature and the seal was thoroughly wiped with antistatic spray to reduce electrostatic events. Scintillation data were recorded with a Topcount NXT C384, in the form of three independent replicates each consisting of three technical triplicates. Specific binding was calculated by subtracting non-specific binding raw counts from total binding raw counts. The dissociation constant Kd and standard deviation of the three independent replicates are reported and were calculated by the GraphPad Prism ‘One site – specific binding’ tool.

[5] = Acinetobacter baylyi, ADP1WILDTYPE, read-out: MIC

Chain of His-tagged LptB2FG (ablLptB2FG) (Q6FFD7 1-366): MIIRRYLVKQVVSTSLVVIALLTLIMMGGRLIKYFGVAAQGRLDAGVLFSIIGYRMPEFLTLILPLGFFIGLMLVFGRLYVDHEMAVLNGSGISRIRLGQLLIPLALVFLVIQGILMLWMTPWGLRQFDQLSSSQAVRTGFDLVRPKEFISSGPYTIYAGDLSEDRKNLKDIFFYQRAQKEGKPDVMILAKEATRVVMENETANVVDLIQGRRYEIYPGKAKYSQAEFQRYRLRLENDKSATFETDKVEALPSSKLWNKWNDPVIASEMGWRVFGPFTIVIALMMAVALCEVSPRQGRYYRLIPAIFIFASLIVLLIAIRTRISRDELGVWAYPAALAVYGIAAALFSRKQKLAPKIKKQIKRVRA
Chain of His-tagged LptB2FG (ablLptB2FG) (Q6FFD6 1-356): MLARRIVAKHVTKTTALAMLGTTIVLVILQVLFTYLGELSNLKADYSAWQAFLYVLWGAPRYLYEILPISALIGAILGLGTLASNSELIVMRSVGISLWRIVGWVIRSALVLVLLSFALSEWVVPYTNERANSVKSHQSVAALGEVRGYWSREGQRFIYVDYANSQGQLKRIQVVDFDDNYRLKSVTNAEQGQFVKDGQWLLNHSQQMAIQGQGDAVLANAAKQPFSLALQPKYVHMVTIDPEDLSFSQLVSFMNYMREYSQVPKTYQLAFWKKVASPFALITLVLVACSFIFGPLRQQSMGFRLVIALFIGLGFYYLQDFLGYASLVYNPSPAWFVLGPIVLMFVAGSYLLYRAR
Chain of His-tagged LptB2FG (ablLptB2FG) (Q6FC66 1-249 partner): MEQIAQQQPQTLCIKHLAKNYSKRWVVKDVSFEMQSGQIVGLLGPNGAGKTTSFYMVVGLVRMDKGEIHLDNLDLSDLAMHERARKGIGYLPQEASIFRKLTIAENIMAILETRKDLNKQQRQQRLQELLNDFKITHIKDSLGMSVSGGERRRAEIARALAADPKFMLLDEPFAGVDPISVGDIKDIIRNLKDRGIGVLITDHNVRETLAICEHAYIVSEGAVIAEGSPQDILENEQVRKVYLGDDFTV

Molecule | MIC [1, 5] | MIC ([2]; Acinetobacter baylyi) | also measured
CO[C@H]1[C@H](OC(=O)c2ccc(C)[nH]2)[C@H](O)[C@@H](Oc2ccc3c(O)c(NC(=O)c4c[nH]c(C(=O)Nc5c(O)c6ccc(O[C@H]7OC(C)(C)[C@@H](OC)[C@H](OC(=O)c8ccc(C)[nH]8)[C@@H]7O)c(C)c6oc5=O)c4C)c(=O)oc3c2C)OC1(C)C [Coumermycin A1] | 5 µM and 6 µg/mL | 0.16 µM and 0.18 µg/mL | 
CO[C@@H]1[C@@H](OC(N)=O)[C@@H](O)[C@H](Oc2ccc3c(O)c(NC(=O)c4ccc(O)c(CC=C(C)C)c4)c(=O)oc3c2C)OC1(C)C [Novobiocin] | 4 µM and 2 µg/mL | 0.6 µM and 0.4 µg/mL | 
CO[C@H]1/C=C/O[C@@]2(C)Oc3c(C)c(O)c4c(O)c(c(/C=N/N5CCN(C)CC5)c(O)c4c3C2=O)NC(=O)/C(C)=C\C=C\[C@H](C)[C@H](O)[C@@H](C)[C@@H](O)[C@@H](C)[C@H](OC(C)=O)[C@@H]1C [Rifampicin] | 1.6 µM and 1.3 µg/mL | 0.6 µM and 0.5 µg/mL | 
Oc1cc(Cl)ccc1Oc1ccc(Cl)cc1Cl [Triclosan] | 0.126 µM and 0.036 µg/mL | 0.03 µM and 0.009 µg/mL | 
CN[C@H](CC(C)C)C(=O)N[C@H]1C(=O)N[C@@H](CC(N)=O)C(=O)N[C@H]2C(=O)N[C@H]3C(=O)N[C@H](C(=O)N[C@H](C(=O)O)c4cc(O)cc(O)c4-c4cc3ccc4O)[C@H](O)c3ccc(c(Cl)c3)Oc3cc2cc(c3O[C@@H]2O[C@H](CO)[C@@H](O)[C@H](O)[C@H]2O[C@H]2C[C@](C)(N)[C@H](O)[C@H](C)O2)Oc2ccc(cc2Cl)[C@H]1O [Vancomycin] | 500 µM and 700 µg/mL | 17 µM and 25 µg/mL | 
CN1C(=O)[C@H](CCCCN)NC(=O)[C@H](CCCN)NCc2cccnc2Sc2cccc(-c3ccc(C(=O)O)cc3)c2CNC(=O)[C@@H]1Cc1c[nH]c2ccccc12 [[^3H]-RO7223280] |  |  | Binding of radiolabelled 2 to LptB2FGC [3]: not LptB2FGC; Binding of radiolabelled 2 to LptB2FG ([4]; binding dependent on presence of LPS): bound to LptB2FG; Kd ([4]; used as constraint for Ki fit): 86 nM
Bacitracin |  |  | MIC [1]: 700 µg/mL; MIC ([1]; read-out: MIC): 500 µM; MIC ([2]; A. baylyi ΔlpxM): 20 µM and 30 µg/mL
